Values of other authors, collected in patent US20110268797A1, “MULTICOATED ALISKIREN FORMULATIONS” (Sanovel IIac Sanayi Ve Ticaret Anonim Sirketi, priority 2010, published 2011).
Like-named read-outs stand apart in the source and are kept apart here.

Measured: solubility

COCCCOc1cc(C[C@@H](C[C@H](N)[C@@H](O)C[C@H](C(=O)NCC(C)(C)C(N)=O)C(C)C)C(C)C)ccc1OC [Aliskiren hemifumarate]
freely soluble: in n-octanol | in phosphate buffer | in water
